Patent US7449560B2, “Phosophoinositoglycan binding proteins” (Sanofi-Aventis Deutschland GmbH, priority 2002, dated 2008)

Tests used:
[1] = system: PIG(-P) receptor at hcDIGs; assay: Competition of unlabeled PIG(-P) with radiolabeled YCN-PIG binding to hcDIGs; set-up: species or system rat; conditions: for Binding affinity: hcDIGs of rat adipocytes; for efficacy in the competition assay (displacement of radiolabeled YCN-PIG from hcDIGs): unlabeled competitor
Method: (§1) 10 μl, of radiolabeled YCN-PIG or IcGce1p (60,000-80,000 dpm/nmol, final conc. 5 μM) was added to 40 μl of suspended plasma membranes, microsomes or hc/IcDIGs (40-80 μg of protein) in binding buffer in the absence or presence of unlabeled competitor (as indicated in the figure legends) in a total volume of 100 μl and incubated (30 min, 4° C.). For separation of membranes from the incubation medium, 45 μl aliquots were carefully layered over 200 μl, oil layers consisting of dibutyl phthalate and dioctyl phthalate (1/1 by vol., final density 1.012) in case of plasma membranes/microsomes or dibutyl phthalate and dinonyl phthalate (1/9 by vol., final density […]) in case of hc/IcDIGs in 0.4 ml precooled (4° C.) centrifugation tubes (microtubes no. 72.700, Sarstedt, Germany). […] After rigorous shaking (16 h, 25° C.), the radioactivity was counted in 9 ml of ACSII scintillation cocktail (Beckman). Under these conditions, sticking to the tube walls and partitioning into the oil layer of both radiolabeled YCN-PIG and IcGce1p accounted for 50-120 dpm (i.e. less than 0.5% of total radioactivity used per incubation) and therefore was not considered for calculation of binding data. Typical recoveries of plasma membranes and microsomes were 78-85% and 65-80%, respectively, and of hcDIGs and IcDIGs 83-92% and 70-78%, respectively, according to protein determination.
Radiolabeled YCN−PIG (18,000-22,000 dpm) was incubated (1 h, 4° C.) with hcDIGs (6.5 μg protein) in the absence or presence of increasing amounts of unlabeled YCN-PIG, YCN+PIG37, YMN-PIG, PIG37 and YCN (Competition). The membrane fractions/DIGs were subjected to oil-layer-centrifugation, recovered with/from the pellet/top of the oil layer, solubilized and counted for radioactivity.

[2] = system: IcGce1p binding site at hcDIGs; assay: Competition of synthetic PIG(-P) with radiolabeled IcGce1p binding to hcDIGs; set-up: species or system rat
Method: (§2) 10 μl, of radiolabeled YCN-PIG or IcGce1p (60,000-80,000 dpm/nmol, final conc. 5 μM) was added to 40 μl of suspended plasma membranes, microsomes or hc/IcDIGs (40-80 μg of protein) in binding buffer in the absence or presence of unlabeled competitor (as indicated in the figure legends) in a total volume of 100 μl and incubated (30 min, 4° C.). […] After rigorous shaking (16 h, 25° C.), the radioactivity was counted in 9 ml of ACSII scintillation cocktail (Beckman). Under these conditions, sticking to the tube walls and partitioning into the oil layer of both radiolabeled YCN-PIG and IcGce1p accounted for 50-120 dpm (i.e. less than 0.5% of total radioactivity used per incubation) and therefore was not considered for calculation of binding data. […]
Radiolabeled Gce1p prepared from S. cerevisiae and treated with PI-specific PLC (B. cereus) was incubated (1 h, 4° C.) with hcDIGs (6.5 μg protein) isolated from untreated rat adipocytes in the absence or presence of unlabeled PIG-P. hcDIGs were subjected to oil-layer-centrifugation, solubilized and counted for radioactivity. […]

IcDIGs = assay: Binding of radiolabeled YCN-PIG to IcDIGs; set-up: species or system rat; conditions: control adipocytes (no m-βCD)
Method: as §2
Radiolabeled YCN-PIG (12,000-18,000 dpm) was incubated (1 h, 4° C.) with the (proportional) amounts of hcDIGs and IcDIGs prepared from isolated rat adipocytes which had been pretreated (50 min, 30° C.) with increasing concentrations of m-βCD or left untreated. DIGs were subjected to oil-layer-centrifugation, recovered from top of the oil layer, solubilized and counted for radioactivity measured in the absence and presence of 10 μM unlabeled YCN-PIG. […]

[3] = system: PIG(-P) receptor at hcDIGs; assay: Binding of radiolabeled YCN-PIG to hcDIGs (oil-layer centrifugation, Scatchard plot); set-up: species or system rat
Method: as §1, with “determination. […]” for “determination.”
Increasing amounts of radiolabeled YCN−PIG isolated from S. cerevisiae were incubated (1 h, 4° C.) with hcDIGs (6.5 μg protein), IcDIGs (6.5 μg), plasma membranes (47.5 μg) and microsomes (68 μg) from isolated rat adipocytes. The membrane fractions/DIGs were subjected to oil-layer-centrifugation, recovered with/from the pellet/top of the oil layer, solubilized and counted for radioactivity. Specific binding was calculated as the difference between radioactivity measured in the absence and presence of 10 μM unlabeled YCN−PIG. […]

[4] = system: CIR (115 kDa polypeptide); assay: [14C]NEM-labeling and trypsin/NaCl release of CIR from rat adipocytes; format: cell-based; conditions: adipocytes treated before labeling
Method: For trypsin/NaCl-treatment, 2 ml of adipocyte suspension (3.5×10^6 cells/ml) in KRH containing 5 mM glucose was incubated (20 min, 30° C.) in the presence of 100 μg/ml trypsin. Soy bean trypsin inhibitor (final conc. 100 μg/ml) and 2 ml of KRH containing 1 M NaCl and 0.5% BSA were added and the incubation (10 min, 22° C.) continued. For NEM-treatment, 1 ml of adipocyte suspension (3.5×10^6 cells/ml) in KRH containing 5 mM glucose was incubated (30 min, 25° C.) with NEM (1.5 mM final conc.) and then with DTT (15 mM final conc., 5 min). After the treatments, the cells were centrifuged (1500×g, 5 min, swing-out rotor) and the infranatant removed by suction. The cell suspension left (about 0.5 ml) was supplemented with 10 ml of KRH containing 0.5% BSA and then centrifuged again (500×g, 1 min, swing-out rotor). […] Proteins of the medium contained in the lower part of the tubes were precipitated (10% TCA, two acetone washes), suspended in Laemmli sample buffer and analyzed by SDS-PAGE. […]
Phosphorimages are shown from a typical experiment repeated three times with similar results. Quantitative evaluation of four different adipocyte incubations with triplicate measurements given as arbitrary units (mean±SD) with the amount of CIR released from trypsin/NaCl-treated control cells set at 100.

Row | Substance | Binding affinity [1] | efficacy in the competition assay (displacement of radiolabeled YCN-PIG from hcDIGs) [1] | Competition of IcGce1p binding [2] | YCN-PIG left associated with IcDIGs (IcDIGs) [%] | Bmax ([3]; Scatchard plot analysis, radiolabeled YCN-PIG) | Bmax higher vs untreated ([3]; hcDIGs from PI-specific PLC-pretreated adipocytes, Scatchard) [fold] | increase in binding of YCN-PIG to hcDIGs ([3]; hcDIGs from adipocytes pretreated with GPI-specific PL (PI-specific PLC / GPI-specific PLD)) [%] | stimulation of trypsin/NaCl-dependent release of [14C]NEM-labeled CIR [4] [%]
1 | HO—PO(H)O-6Manα1 (Manα1-2)-2-Manα1-6Manα1-4GluN1-6Ino-1,2-(cyclic)-phosphate [PIG37] | intermediate | significantly reduced efficacy | considerably less efficient | – | – | – | – | –
2 | Tyr-Cys-Asn-NH—(CH2)2—OH [YCN] | low | very low activity | considerably less efficient | – | – | – | – | –
3 | Tyr-Cys-Asn-NH—(CH2)2—O—PO(OH)O-6Manα1-2)2Manα1-6Manα1-4GluN1-6Ino-1,2-(cyclic)-phosphate [YCN-PIG, phosphoinositolglycan-peptide derived from yeast Gce1p GPI anchor; also chemically synthesized] | highest | – | – | 20 | 50-200 pmol per mg protein of hcDIGs | 2 to 3 | 200 | –
4 | insulin: human insulin | – | – | – | – | – | – | – | 20
